Measurements from publication PMC10866072, “Design, synthesis, molecular modelling and biological evaluation of novel 6-amino-5-cyano-2-thiopyrimidine derivatives as potent anticancer agents against leukemia and apoptotic inducers” (Journal of Enzyme Inhibition and Medicinal Chemistry, 2024).

Assays:
U251 = type: cell-based; details: 48 h
HCT-116 = type: cell-based; details: one dose 10^-5 M, 48 h
MCF7 = type: cell-based; details: one dose 10^-5 M, 48 h
LOX IMVI = type: cell-based; details: one dose 10^-5 M, 48 h
SF-539 = type: cell-based; details: one dose 10^-5 M, 48 h
SK-MEL-5 = type: cell-based; details: one dose 10^-5 M, 48 h
SNB-75 = type: cell-based; details: one dose 10^-5 M, 48 h
NCI-H23 = type: cell-based; details: one dose 10^-5 M, 48 h
EKVX = type: cell-based; details: one dose 10^-5 M, 48 h
A549/ATCC = type: cell-based; details: one dose 10^-5 M, 48 h
SK-MEL-2 = type: cell-based; details: one dose 10^-5 M, 48 h
UACC-257 = type: cell-based; details: one dose 10^-5 M, 48 h
MOLT-4 = type: cell-based; details: one dose 10^-5 M, 48 h
PC-3 = type: cell-based; details: one dose 10^-5 M, 48 h
SR = type: cell-based; details: one dose 10^-5 M, 48 h
CAKI-1 = type: cell-based; details: one dose 10^-5 M, 48 h
NCI-H226 = type: cell-based; details: one dose 10^-5 M, 48 h
SF-268 = type: cell-based; details: one dose 10^-5 M, 48 h
MALME-3M = type: cell-based; details: one dose 10^-5 M, 48 h
HL-60(TB) = type: cell-based; details: one dose 10^-5 M, 48 h
SNB-19 = type: cell-based; details: one dose 10^-5 M, 48 h
SF-295 = type: cell-based; details: one dose 10^-5 M, 48 h
IGROV1 = type: cell-based; details: 48 h
MDA-MB-435 = type: cell-based; details: one dose 10^-5 M, 48 h
DU-145 = type: cell-based; details: one dose 10^-5 M, 48 h
RPMI-8226 = type: cell-based; details: one dose 10^-5 M, 48 h
HCC-2998 = type: cell-based; details: one dose 10^-5 M, 48 h
A498 = type: cell-based; details: one dose 10^-5 M, 48 h
OVCAR-5 = type: cell-based; details: one dose 10^-5 M, 48 h
HCT-15 = type: cell-based; details: one dose 10^-5 M, 48 h
CCRF-CEM = type: cell-based; details: one dose 10^-5 M, 48 h
UACC-62 = type: cell-based; details: one dose 10^-5 M, 48 h
HOP-62 = type: cell-based; details: one dose 10^-5 M, 48 h
HT29 = type: cell-based; details: 48 h
HS 578T = type: cell-based; details: one dose 10^-5 M, 48 h, HS 578T
OVCAR-8 = type: cell-based; details: one dose 10^-5 M, 48 h
KM12 = type: cell-based; details: one dose 10^-5 M, 48 h
TK-10 = type: cell-based; details: one dose 10^-5 M, 48 h
SK-MEL-28 = type: cell-based; details: one dose 10^-5 M, 48 h
T-47D = type: cell-based; details: one dose 10^-5 M, 48 h
SK-OV-3 = type: cell-based; details: one dose 10^-5 M, 48 h
OVCAR-4 = type: cell-based; details: one dose 10^-5 M, 48 h
NCI-H522 = type: cell-based; details: one dose 10^-5 M, 48 h
K-562 = type: cell-based; details: 48 h
RXF 393 = type: cell-based; details: one dose 10^-5 M, 48 h
SW-620 = type: cell-based; details: one dose 10^-5 M, 48 h
NCI-H460 = type: cell-based; details: one dose 10^-5 M, 48 h
SN12C = type: cell-based, human; details: one dose 10^-5 M, 48 h
[1] = system: full NCI 60 cell lines panel
OVCAR-3 = type: cell-based; details: one dose 10^-5 M, 48 h
ACHN = type: cell-based; details: one dose 10^-5 M, 48 h
MDA-MB-231/ATCC = type: cell-based; details: one dose 10^-5 M, 48 h
HOP-92 = type: cell-based; details: one dose 10^-5 M, 48 h
786-0 = type: cell-based; details: one dose 10^-5 M, 48 h
MDA-MB-468 = type: cell-based; details: one dose 10^-5 M, 48 h
UO-31 = type: cell-based; details: one dose 10^-5 M, 48 h
M14 = type: cell-based; details: one dose 10^-5 M, 48 h
[2] = Homo sapiens, read-out: % growth

Question: Which results are given for “4-Amino-6–(4-chlorophenyl)-2-mercaptopyrimidine-5-carboximidohydrazide [Compound 2b]”?
Answer: % growth (U251; one dose 10^-5 M): 105.90%; % growth (HCT-116): 119.61%; % growth (MCF7): 98.64%; % growth (LOX IMVI): 109.11%; % growth (SF-539): 103.32%; % growth (SK-MEL-5): 100.02%; % growth (SNB-75): 99.29%; % growth (NCI-H23): 107.36%; % growth (EKVX): 100.22%; % growth (A549/ATCC): 110.21%; % growth (SK-MEL-2): 109.65%; % growth (UACC-257): 114.55%; % growth (MOLT-4): 99.19%; % growth (PC-3): 111.23%; % growth (SR): 81.00%; % growth (CAKI-1): 99.31%; % growth (NCI-H226): 121.25%; % growth (SF-268): 108.46%; % growth (MALME-3M): 109.72%; % growth (HL-60(TB)): 98.64%; % growth (SNB-19): 98.41%; % growth (SF-295): 93.17%; % growth (IGROV1; one dose 10^-5 M): 103.95%; % growth (MDA-MB-435): 96.65%; % growth (DU-145): 106.23%; % growth (RPMI-8226): 94.54%; % growth (HCC-2998): 105.50%; % growth (A498): 116.23%; % growth (OVCAR-5): 103.26%; % growth (HCT-15): 103.81%; % growth (CCRF-CEM): 100.09%; % growth (UACC-62): 100.76%; % growth (HOP-62): 113.92%; % growth (HT29; one dose 10^-5 M): 98.85%; % growth (HS 578T): 128.54%; % growth (OVCAR-8): 110.09%; % growth (KM12): 100.03%; % growth (TK-10): 113.67%; % growth (SK-MEL-28): 108.56%; % growth (T-47D): 96.25%; % growth (SK-OV-3): 123.58%; % growth (OVCAR-4): 103.90%; % growth (NCI-H522): 98.92%; % growth (K-562; one dose 10^-5 M): 98.62%; % growth (RXF 393): 119.00%; % growth (SW-620): 103.87%; % growth (NCI-H460): 107.93%; % growth (SN12C): 99.89%; activity on all 60 cancer cell lines tested (in words) ([1]; one dose): weak activity; Mean % growth ([1]; one dose 10^-5 M, 48 h, mean over all cell lines): 105.07%; % growth (OVCAR-3): 112.26%; % growth (ACHN): 102.02%; % growth (MDA-MB-231/ATCC): 100.62%; % growth (HOP-92): 107.66%; % growth (786-0): 99.27%; % growth (MDA-MB-468): 102.27%; % growth (UO-31): 93.82%; % growth (M14): 111.66%

Question: With `N#Cc1c(N)nc(S)nc1-c1ccc(Cl)cc1` [Compound 1b] as the molecule, how does the % growth at 10 µM (U251; Homo sapiens, U-251, one dose 10^-5 M) read?
Answer: 81.6%

Question: And the activity at 10 µM (HCT-116; [2])?
Answer: 76.5%

Question: What about the activity at 10 µM (MCF7; [2]) of the same molecule?
Answer: 67.7%

Question: And the activity at 10 µM (LOX IMVI; [2])?
Answer: 79.2%

Question: What about the % growth at 10 µM (SF-539; Homo sapiens) of the same molecule?
Answer: 71.9%

Question: What about the activity at 10 µM (SK-MEL-5; [2]) of the same molecule?
Answer: 85.9%

Question: And the % growth at 10 µM (SNB-75; Homo sapiens)?
Answer: 42.2%

Question: What about the activity at 10 µM (NCI-H23; [2]) of the same molecule?
Answer: 85.5%

Question: What about the % cell growth at 10 µM (EKVX; Homo sapiens) of the same molecule?
Answer: 61%

Question: And the % growth at 10 µM (A549/ATCC; Homo sapiens)?
Answer: 86%

Question: And the % growth at 10 µM (SK-MEL-2; Homo sapiens)?
Answer: 96.5%

Question: And the percent cell growth at 10 µM (UACC-257; Homo sapiens)?
Answer: 102%

Question: What about the activity at 10 µM (MOLT-4; [2]) of the same molecule?
Answer: 50.7%

Question: What about the percent cell growth at 10 µM (PC-3; Homo sapiens) of the same molecule?
Answer: 56.4%

Question: And the percent cell growth at 10 µM (SR; Homo sapiens)?
Answer: 66.9%

Question: What about the % growth at 10 µM (CAKI-1; Homo sapiens, CAKI-1, 48 h) of the same molecule?
Answer: 52%

Question: And the % growth at 10 µM (NCI-H226; Homo sapiens)?
Answer: 78.7%

Question: What about the activity at 10 µM (SF-268; [2]) of the same molecule?
Answer: 69.7%

Question: And the % growth at 10 µM (MALME-3M; Homo sapiens)?
Answer: 99.6%

Question: And the % growth at 10 µM (HL-60(TB); Homo sapiens)?
Answer: 69.6%

Question: And the activity at 10 µM (SNB-19; [2])?
Answer: 60.4%

Question: And the % cell growth at 10 µM (SF-295; Homo sapiens)?
Answer: 76.2%

Question: What about the activity at 10 µM (IGROV1; Homo sapiens, IGROV-1, one dose 10^-5 M, read-out: % growth) of the same molecule?
Answer: 57.9%

Question: What about the activity at 10 µM (MDA-MB-435; [2]) of the same molecule?
Answer: 86.5%

Question: What about the % growth at 10 µM (DU-145; Homo sapiens) of the same molecule?
Answer: 86.8%

Question: And the % growth at 10 µM (RPMI-8226; Homo sapiens)?
Answer: 47.2%

Question: And the % growth at 10 µM (HCC-2998; Homo sapiens)?
Answer: 99.6%

Question: And the % growth at 10 µM (A498; Homo sapiens)?
Answer: 77.4%

Question: What about the percent cell growth at 10 µM (OVCAR-5; Homo sapiens) of the same molecule?
Answer: 91.6%

Question: And the activity at 10 µM (HCT-15; [2])?
Answer: 86%

Question: And the % cell growth at 10 µM (CCRF-CEM; Homo sapiens)?
Answer: 65.5%

Question: What about the % growth at 10 µM (UACC-62; Homo sapiens) of the same molecule?
Answer: 66.8%

Question: What about the % growth at 10 µM (HOP-62; Homo sapiens) of the same molecule?
Answer: 74.6%

Question: What about the % growth at 10 µM (HT29; Homo sapiens, HT-29, one dose 10^-5 M) of the same molecule?
Answer: 91.1%

Question: And the activity at 10 µM (HS 578T; [2])?
Answer: 74%

Question: What about the % growth of cells at 10 µM (OVCAR-8; Homo sapiens) of the same molecule?
Answer: 82.2%

Question: And the % growth at 10 µM (KM12; Homo sapiens)?
Answer: 82%

Question: And the % cell growth at 10 µM (TK-10; Homo sapiens)?
Answer: 126%

Question: What about the % cell growth at 10 µM (SK-MEL-28; Homo sapiens) of the same molecule?
Answer: 95.6%

Question: And the activity at 10 µM (T-47D; Homo sapiens, T47D, read-out: % growth)?
Answer: 58.3%

Question: What about the % growth at 10 µM (SK-OV-3; Homo sapiens) of the same molecule?
Answer: 84.3%

Question: What about the % growth at 10 µM (OVCAR-4; Homo sapiens) of the same molecule?
Answer: 76.2%

Question: What about the % growth at 10 µM (NCI-H522; Homo sapiens) of the same molecule?
Answer: 58.7%

Question: And the % growth at 10 µM (K-562; Homo sapiens, K562, one dose 10^-5 M)?
Answer: 68.1%

Question: What about the activity at 10 µM (RXF 393; Homo sapiens, RXF 393, 48 h, read-out: % growth) of the same molecule?
Answer: 55.5%

Question: And the % growth at 10 µM (SW-620; Homo sapiens)?
Answer: 87.3%

Question: And the activity at 10 µM (NCI-H460; [2])?
Answer: 86.7%

Question: And the % growth at 10 µM (SN12C; Homo sapiens)?
Answer: 75.7%

Question: And the activity at 10 µM ([1]; Homo sapiens, 60 cell, 48 h, read-out: Mean % growth)?
Answer: 75.7%

Question: And the % growth at 10 µM (OVCAR-3; Homo sapiens)?
Answer: 93.4%

Question: What about the % growth at 10 µM (ACHN; Homo sapiens) of the same molecule?
Answer: 77.2%

Question: And the % growth at 10 µM (MDA-MB-231/ATCC; Homo sapiens)?
Answer: 53.7%

Question: What about the % growth at 10 µM (HOP-92; Homo sapiens) of the same molecule?
Answer: 43.5%

Question: And the % growth at 10 µM (786-0; Homo sapiens)?
Answer: 85%

Question: And the percent cell growth at 10 µM (MDA-MB-468; Homo sapiens)?
Answer: 81.1%

Question: What about the % cell growth at 10 µM (UO-31; Homo sapiens, UO-31, 48 h) of the same molecule?
Answer: 45.4%

Question: What about the % growth at 10 µM (M14; Homo sapiens) of the same molecule?
Answer: 99.9%
